Key:
Assay in all cases: relative viability (nuclei count vs DMSO), 5 days (fraction); higher = more cells survive
Wnt-C59 + Bortezomib = compound: CC1=NC=CC(=C1)C2=CC=C(C=C2)CC(=O)NC3=CC=C(C=C3)C4=CN=CC=C4 [Wnt-C59] + CC(C)C[C@H](NC(=O)[C@H](Cc1ccccc1)NC(=O)c1cnccn1)B(O)O [Bortezomib] (partner 0.002 µM)
Outline: (§1)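 For relative viability, nuclei counts in treated wells were divided by those in vehicle wells. Lung cancer cell lines had been pin-tool dosed in 1536-well plates the day after seeding and cultured for 5 days, then fixed and stained in one step (final 0.05% Triton X-100, 1% formaldehyde, 1 ug/ml Hoechst) and imaged at 4×. Doses were one drug alone or a fixed anchor-drug dose plus five library-drug doses (not always all listed) in √10 steps, and values are duplicate-plate medians.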

Wnt-C59 + Pictilisib = compound: CC1=NC=CC(=C1)C2=CC=C(C=C2)CC(=O)NC3=CC=C(C=C3)C4=CN=CC=C4 [Wnt-C59] + CS(=O)(=O)N1CCN(Cc2cc3nc(-c4cccc5[nH]ncc45)nc(N4CCOCC4)c3s2)CC1 [Pictilisib] (partner 1 µM)
Outline: as §1

Wnt-C59 + Linsitinib = compound: CC1=NC=CC(=C1)C2=CC=C(C=C2)CC(=O)NC3=CC=C(C=C3)C4=CN=CC=C4 [Wnt-C59] + C[C@]1(O)C[C@@H](c2nc(-c3ccc4ccc(-c5ccccc5)nc4c3)c3c(N)nccn32)C1 [Linsitinib] (partner 1 µM)
Outline: as §1

Lapatinib + Pemetrexed = compound: CS(=O)(=O)CCNCc1ccc(-c2ccc3ncnc(Nc4ccc(OCc5cccc(F)c5)c(Cl)c4)c3c2)o1 [Lapatinib] + Nc1nc2[nH]cc(CCc3ccc(C(=O)N[C@@H](CCC(=O)O)C(=O)O)cc3)c2c(=O)[nH]1 [Pemetrexed] (partner 0.2 µM)
Outline: as §1

Cell Line	relative viability (Wnt-C59 + Bortezomib; first compound 0.001 µM)	relative viability (Wnt-C59 + Bortezomib; first compound 0.01 µM)	relative viability (Wnt-C59 + Bortezomib; first compound 0.03162 µM)	relative viability (Wnt-C59 + Bortezomib; first compound 0.1 µM)	relative viability (Wnt-C59 + Pictilisib; first compound 0.001 µM)	relative viability (Wnt-C59 + Pictilisib; first compound 0.01 µM)	relative viability (Wnt-C59 + Pictilisib; first compound 0.03162 µM)	relative viability (Wnt-C59 + Pictilisib; first compound 0.1 µM)	relative viability (Wnt-C59 + Linsitinib; first compound 0.001 µM)	relative viability (Wnt-C59 + Linsitinib; first compound 0.01 µM)	relative viability (Wnt-C59 + Linsitinib; first compound 0.03162 µM)	relative viability (Wnt-C59 + Linsitinib; first compound 0.1 µM)	relative viability (Lapatinib + Pemetrexed; first compound 0.02 µM)	relative viability (Lapatinib + Pemetrexed; first compound 0.06325 µM)	relative viability (Lapatinib + Pemetrexed; first compound 0.2 µM)	relative viability (Lapatinib + Pemetrexed; first compound 0.6325 µM)	relative viability (Lapatinib + Pemetrexed; first compound 2 µM)
NCI-H1299	1.02	1.06	1.02	1.01	0.739	0.476	0.756	0.793	0.965	1.07	0.961	1	–	–	–	–	–
HARA	1.1	1.01	1.19	1.15	0.32	0.523	0.402	0.6	1.02	0.865	1.16	0.899	0.222	0.225	0.274	0.277	0.224
H3255	0.78	0.823	0.769	0.912	0.565	0.359	0.431	0.49	1.01	0.962	1.02	0.866	0.514	0.514	0.544	0.504	0.407
NCI-H1792	0.959	0.963	1.04	0.946	0.273	0.25	0.225	0.332	0.557	0.5	0.465	0.549	–	–	0.936	0.75	0.656
NCI-H2023	0.979	1.1	1.05	0.821	0.27	0.244	0.238	0.235	0.736	0.58	0.648	0.631	–	0.182	0.233	0.193	0.186
HCC-78	0.571	0.515	0.609	0.422	0.22	0.185	0.226	0.257	0.507	0.498	0.576	0.584	–	0.832	0.882	0.841	0.936
HOP-62	0.826	0.752	0.658	0.931	0.63	0.76	0.855	0.693	1.09	1.1	1.14	0.95	–	0.318	0.299	0.365	0.389
NCI-H1755	0.974	0.88	0.929	0.948	0.374	0.433	0.459	0.433	0.979	0.954	0.983	0.984	0.423	0.405	0.49	0.451	0.439
NCI-H1651	0.928	0.985	0.97	0.913	0.601	0.584	0.541	0.561	1	0.9	1.02	0.852	0.48	0.553	0.553	0.6	0.657
SK-MES-1	–	–	–	–	0.392	0.368	0.305	0.322	1.11	1.1	1.02	1.08	0.824	0.93	0.943	0.997	0.405
NCI-H2085	1.16	0.898	1.07	1.16	0.502	0.449	0.41	0.45	0.971	0.867	1.02	0.947	0.743	0.806	0.911	0.847	0.605
EKVX	1	0.928	1.06	0.895	0.428	0.362	0.394	0.344	1.07	0.846	1.01	0.757	–	0.361	0.344	0.274	0.355
NCI-H1437	0.576	0.433	0.551	0.395	0.531	0.617	0.467	0.479	1.01	1.01	1.04	1.01	0.303	0.302	0.279	0.289	0.329
Calu-6	0.924	0.99	1.05	1.07	0.856	0.973	0.998	0.873	0.89	0.9	0.987	0.955	–	–	–	–	–
A549	–	–	–	–	0.534	0.541	0.408	0.484	0.568	0.498	0.555	0.504	–	–	–	–	–
LK-2	–	–	–	–	0.667	0.653	0.557	0.573	0.529	0.708	0.563	0.582	0.137	–	0.261	–	0.264
NCI-H1703	0.417	0.271	0.331	0.42	0.22	0.218	0.324	0.273	0.721	0.631	0.739	0.899	–	–	–	–	–
NCI-H727	0.948	0.782	0.951	1.08	0.381	0.342	0.43	0.309	0.399	0.277	0.269	0.258	–	–	–	–	–
NCI-H1944	–	–	–	–	0.372	0.312	0.322	0.336	1.13	1.11	1.26	1.12	0.619	0.493	0.551	0.523	0.41
IA-LM	0.942	0.713	0.91	0.724	0.271	0.251	0.337	0.375	0.67	0.549	0.621	0.533	–	–	–	–	–
NCI-H1793	–	–	–	–	0.215	0.22	0.3	0.444	0.926	0.729	0.875	0.865	–	0.602	0.889	0.658	0.535
EBC-1	0.638	0.617	0.394	0.591	0.444	0.349	0.299	0.418	0.927	0.912	0.925	0.814	–	–	–	–	–
NCI-H1648	–	–	–	–	–	–	–	–	–	–	–	–	–	0.62	0.789	0.636	0.64

From the supplement of paper PMC10307832
